According to ChEMBL document CHEMBL4145521, “Regioselective synthesis of 3,4-diaryl-5-unsubstituted isoxazoles, analogues of natural cytostatic combretastatin A4” (Eur J Med Chem, 2018):

How the values were obtained:
Assay type in all cases: functional
LOX IMVI = assay: Cytotoxicity against human LOXIMVI cells assessed as cell growth at 0.1 uM incubated for 48 hrs by sulforhodamine B assay relative to control; conditions: read-out: Activity
KM12 = assay: Cytotoxicity against human KM12 cells assessed as cell growth at 10 uM incubated for 48 hrs by sulforhodamine B assay relative to control; conditions: KM12, 48 h, read-out: Activity
COLO 205 [1] = assay: Cytotoxicity against human COLO205 cells assessed as cell growth at 100 uM incubated for 48 hrs by sulforhodamine B assay relative to control; conditions: COLO 205, 48 h, read-out: Activity
SK-OV-3 = assay: Cytotoxicity against human SKOV3 cells assessed as cell growth at 0.01 uM incubated for 48 hrs by sulforhodamine B assay relative to control; conditions: SK-OV-3, 48 h, read-out: Activity
EKVX = assay: Cytotoxicity against human EKVX cells assessed as cell growth at 100 uM incubated for 48 hrs by sulforhodamine B assay relative to control; conditions: read-out: Activity
RXF 393 [2] = assay: Cytotoxicity against human RXF393 cells assessed as cell growth at 0.1 uM incubated for 48 hrs by sulforhodamine B assay relative to control; conditions: RXF 393, 48 h, read-out: Activity
NCI-H23 = assay: Cytotoxicity against human NCI-H23 cells assessed as cell growth at 1 uM incubated for 48 hrs by sulforhodamine B assay relative to control; conditions: NCI-H23, 48 h, read-out: Activity
SNB-19 [3] = assay: Cytotoxicity against human SNB19 cells incubated for 48 hrs by sulforhodamine B assay; conditions: SNB-19, 48 h
T47D = assay: Cytotoxicity against human T47D cells assessed as cell growth at 100 uM incubated for 48 hrs by sulforhodamine B assay relative to control; conditions: read-out: Activity
TK-10 = assay: Cytotoxicity against human TK10 cells assessed as cell growth at 100 uM incubated for 48 hrs by sulforhodamine B assay relative to control; conditions: TK-10, 48 h, read-out: Activity
HT-29 = assay: Cytotoxicity against human HT-29 cells assessed as cell growth at 0.01 uM incubated for 48 hrs by sulforhodamine B assay relative to control; conditions: HT-29, 48 h, read-out: Activity
SNB-19 [4] = assay: Cytotoxicity against human SNB19 cells assessed as cell growth at 0.01 uM incubated for 48 hrs by sulforhodamine B assay relative to control; conditions: SNB-19, 48 h, read-out: Activity
MDA-MB-435 = assay: Cytotoxicity against human MDA-MB-435 cells assessed as cell growth at 1 uM incubated for 48 hrs by sulforhodamine B assay relative to control; conditions: MDA-MB-435, 48 h, read-out: Activity
PC-3 = assay: Cytotoxicity against human PC3 cells assessed as cell growth at 0.01 uM incubated for 48 hrs by sulforhodamine B assay relative to control; conditions: PC-3, 48 h, read-out: Activity
SF-268 [5] = assay: Cytotoxicity against human SF268 cells assessed as cell growth at 0.1 uM incubated for 48 hrs by sulforhodamine B assay relative to control; conditions: SF-268, 48 h, read-out: Activity
SK-MEL-28 = assay: Cytotoxicity against human SK-MEL-28 cells assessed as cell growth at 1 uM incubated for 48 hrs by sulforhodamine B assay relative to control; conditions: SK-MEL-28, 48 h, read-out: Activity
MDA-MB-231 [6] = assay: Cytotoxicity against human MDA-MB-231 cells assessed as cell growth at 0.01 uM incubated for 48 hrs by sulforhodamine B assay relative to control; conditions: MDA-MB-231, 48 h, read-out: Activity
RPMI-8226 = assay: Cytotoxicity against human RPMI8226 cells assessed as cell growth at 100 uM incubated for 48 hrs by sulforhodamine B assay relative to control; conditions: RPMI-8226, 48 h, read-out: Activity
HOP-62 = assay: Cytotoxicity against human HOP62 cells assessed as cell growth at 100 uM incubated for 48 hrs by sulforhodamine B assay relative to control; conditions: HOP-62, 48 h, read-out: Activity
SR = assay: Cytotoxicity against human SR cells assessed as cell growth at 10 uM incubated for 48 hrs by sulforhodamine B assay relative to control; conditions: read-out: Activity
MCF7 = assay: Cytotoxicity against human MCF7 cells assessed as cell growth at 0.1 uM incubated for 48 hrs by sulforhodamine B assay relative to control; conditions: MCF7, 48 h, read-out: Activity
MDA-MB-231 [7] = assay: Cytotoxicity against human MDA-MB-231 cells assessed as cell growth at 0.1 uM incubated for 48 hrs by sulforhodamine B assay relative to control; conditions: MDA-MB-231, 48 h, read-out: Activity
RXF 393 [8] = assay: Cytotoxicity against human RXF393 cells assessed as cell growth at 0.01 uM incubated for 48 hrs by sulforhodamine B assay relative to control; conditions: RXF 393, 48 h, read-out: Activity
SF-268 [9] = assay: Cytotoxicity against human SF268 cells incubated for 48 hrs by sulforhodamine B assay; conditions: SF-268, 48 h
BT-549 = assay: Cytotoxicity against human BT549 cells incubated for 48 hrs by sulforhodamine B assay; conditions: BT-549, 48 h
Hs-578T = assay: Cytotoxicity against human Hs 578T cells assessed as cell growth at 100 uM incubated for 48 hrs by sulforhodamine B assay relative to control; conditions: read-out: Activity
CAKI-1 = assay: Cytotoxicity against human Caki1 cells assessed as cell growth at 1 uM incubated for 48 hrs by sulforhodamine B assay relative to control; conditions: CAKI-1, 48 h, read-out: Activity
NCI-H322M = assay: Cytotoxicity against human NCI-H322M cells assessed as cell growth at 0.01 uM incubated for 48 hrs by sulforhodamine B assay relative to control; conditions: read-out: Activity
COLO 205 [10] = assay: Cytotoxicity against human COLO205 cells assessed as cell growth at 0.01 uM incubated for 48 hrs by sulforhodamine B assay relative to control; conditions: COLO 205, 48 h, read-out: Activity
HCC 2998 = assay: Cytotoxicity against human HCC2998 cells assessed as cell growth at 1 uM incubated for 48 hrs by sulforhodamine B assay relative to control; conditions: HCC 2998, 48 h, read-out: Activity
COLO 205 [11] = assay: Cytotoxicity against human COLO205 cells assessed as cell growth at 0.1 uM incubated for 48 hrs by sulforhodamine B assay relative to control; conditions: COLO 205, 48 h, read-out: Activity
U-251 = assay: Cytotoxicity against human U251 cells incubated for 48 hrs by sulforhodamine B assay; conditions: U-251, 48 h
[12] = read-out: LC50 (the source's name)
[13] = read-out: pLC50 (the source's name) (converted)

**Q.** With `COc1ccc(-c2nocc2-c2cc(OC)c(OC)c(OC)c2)cc1` as the molecule, how does the growth at 0.1 µM (LOX IMVI) read?
**A.** Its growth at 0.1 µM is 55%.

**Q.** And the growth at 10 µM (KM12)?
**A.** Its growth at 10 µM is 6%.

**Q.** And the growth at 100 µM (COLO 205 [1])?
**A.** The growth at 100 µM was -40%.

**Q.** What about the growth at 0.01 µM (SK-OV-3) of the same molecule?
**A.** The growth at 0.01 µM was 87%.

**Q.** What about the growth at 100 µM (EKVX) of the same molecule?
**A.** The growth at 100 µM was 7%.

**Q.** What about the growth at 0.1 µM (RXF 393 [2]) of the same molecule?
**A.** Its growth at 0.1 µM is 86%.

**Q.** And the growth at 1 µM (NCI-H23)?
**A.** The growth at 1 µM was 29%.

**Q.** And the GI50 (SNB-19 [3]; read-out: GI50)?
**A.** The GI50 was 0.373 µM.

**Q.** And the CC50 (SNB-19 [3]; [12])?
**A.** The CC50 was greater than 100 µM.

**Q.** What about the TGI (SNB-19 [3]; read-out: TGI) of the same molecule?
**A.** The TGI was greater than 100 µM.

**Q.** What about the GI50 (SNB-19 [3]; read-out: pGI50 (converted)) of the same molecule?
**A.** The GI50 was 0.372 µM.

**Q.** And the CC50 (SNB-19 [3]; [13])?
**A.** The CC50 was greater than 100 µM.

**Q.** And the TGI (SNB-19 [3]; read-out: pTGI)?
**A.** Its TGI is greater than 100 µM.

**Q.** What about the growth at 100 µM (T47D) of the same molecule?
**A.** The growth at 100 µM was -4%.

**Q.** What about the growth at 100 µM (TK-10) of the same molecule?
**A.** The growth at 100 µM was -10%.

**Q.** And the growth at 0.01 µM (HT-29)?
**A.** Its growth at 0.01 µM is 98%.

**Q.** And the growth at 0.01 µM (SNB-19 [4])?
**A.** Its growth at 0.01 µM is 98%.

**Q.** And the growth at 1 µM (MDA-MB-435)?
**A.** Its growth at 1 µM is -25%.

**Q.** And the growth at 0.01 µM (PC-3)?
**A.** Its growth at 0.01 µM is 99%.

**Q.** What about the growth at 0.1 µM (SF-268 [5]) of the same molecule?
**A.** The growth at 0.1 µM was 63%.

**Q.** And the growth at 1 µM (SK-MEL-28)?
**A.** The growth at 1 µM was 58%.

**Q.** And the growth at 0.01 µM (MDA-MB-231 [6])?
**A.** The growth at 0.01 µM was 98%.

**Q.** And the growth at 100 µM (RPMI-8226)?
**A.** The growth at 100 µM was -17%.

**Q.** What about the growth at 100 µM (HOP-62) of the same molecule?
**A.** The growth at 100 µM was 10%.

**Q.** What about the growth at 10 µM (SR) of the same molecule?
**A.** The growth at 10 µM was 22%.

**Q.** And the growth at 0.1 µM (MCF7)?
**A.** The growth at 0.1 µM was 27%.

**Q.** And the growth at 0.1 µM (MDA-MB-231 [7])?
**A.** The growth at 0.1 µM was 72%.

**Q.** And the growth at 0.01 µM (RXF 393 [8])?
**A.** Its growth at 0.01 µM is 103%.

**Q.** And the GI50 (SF-268 [9]; read-out: GI50)?
**A.** Its GI50 is 0.549 µM.

**Q.** What about the LC50 (SF-268 [9]; read-out: LC50) of the same molecule?
**A.** Its LC50 is greater than 100 µM.

**Q.** What about the TGI (SF-268 [9]; read-out: TGI) of the same molecule?
**A.** Its TGI is greater than 100 µM.

**Q.** And the GI50 (SF-268 [9]; read-out: pGI50 (converted))?
**A.** Its GI50 is 0.55 µM.

**Q.** What about the LC50 (SF-268 [9]; read-out: pLC50 (converted)) of the same molecule?
**A.** Its LC50 is greater than 100 µM.

**Q.** What about the TGI (SF-268 [9]; read-out: pTGI) of the same molecule?
**A.** The TGI was greater than 100 µM.

**Q.** What about the GI50 (BT-549; read-out: GI50) of the same molecule?
**A.** Its GI50 is 0.176 µM.

**Q.** What about the CC50 (BT-549; [12]) of the same molecule?
**A.** Its CC50 is greater than 100 µM.

**Q.** What about the TGI (BT-549; read-out: TGI) of the same molecule?
**A.** Its TGI is 18.9 µM.

**Q.** What about the GI50 (BT-549; read-out: pGI50 (converted)) of the same molecule?
**A.** The GI50 was 0.178 µM.

**Q.** And the CC50 (BT-549; [13])?
**A.** Its CC50 is greater than 100 µM.

**Q.** And the TGI (BT-549; read-out: pTGI (converted))?
**A.** The TGI was 19.1 µM.

**Q.** What about the growth at 100 µM (Hs-578T) of the same molecule?
**A.** Its growth at 100 µM is 10%.

**Q.** What about the growth at 1 µM (CAKI-1) of the same molecule?
**A.** Its growth at 1 µM is 47%.

**Q.** And the growth at 0.01 µM (NCI-H322M)?
**A.** Its growth at 0.01 µM is 95%.

**Q.** And the growth at 0.01 µM (COLO 205 [10])?
**A.** Its growth at 0.01 µM is 91%.

**Q.** And the growth at 1 µM (HCC 2998)?
**A.** Its growth at 1 µM is 40%.

**Q.** And the growth at 0.1 µM (COLO 205 [11])?
**A.** The growth at 0.1 µM was 37%.

**Q.** And the GI50 (U-251; read-out: GI50)?
**A.** Its GI50 is 0.0906 µM.

**Q.** What about the CC50 (U-251; [12]) of the same molecule?
**A.** The CC50 was greater than 100 µM.

**Q.** And the TGI (U-251; read-out: TGI)?
**A.** The TGI was 65.8 µM.

**Q.** And the GI50 (U-251; read-out: pGI50 (converted))?
**A.** The GI50 was 0.0912 µM.

**Q.** And the CC50 (U-251; [13])?
**A.** Its CC50 is greater than 100 µM.

**Q.** What about the TGI (U-251; read-out: pTGI (converted)) of the same molecule?
**A.** The TGI was 66.1 µM.
